Experimental data from PubChem BioAssay AID330 (DTP/NCI, 2004).
“And” between values parts separate entries of the source, which are not always exact repeats. Equal entries are not always repeated. Inconclusive results and toxic doses are left out. Rule for the calls: active = survival T/C of 150% or more; inactive = T/C below 125% in these data.

System: P388 leukemia ip, CD2F1 mice, survival T/C
Assay: NCI In Vivo Anticancer Drug Screen. Data for tumor model P388 Leukemia (intraperitoneal) in CD2F1 (CDF1) mice
Details: endpoint: median survival time, higher = longer survival
How it was run: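 Mice carrying the transplanted tumor received test compound or vehicle. Survival was recorded in each group, and the value is the treated-group measurement divided by that of the vehicle-treated control group.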

[1] = dose: 50.0 mg/kg/injection, schedule: Q01DX005 (ip), vehicle: Klucel (hydroxypropylcellulose) (HPC)
[2] = dose: 100.0 mg/kg/injection, schedule: Q01DX005 (ip), vehicle: Klucel (hydroxypropylcellulose) (HPC)
[3] = dose: 50.0 mg/kg/injection, schedule: Q01DX005 (ip), vehicle: saline with Tween-80
[4] = dose: 100.0 mg/kg/injection, schedule: Q01DX005 (ip), vehicle: saline with Tween-80
[5] = dose: 200.0 mg/kg/injection, schedule: Q01DX005 (ip), vehicle: saline with Tween-80
[6] = dose: 50.0 mg/kg/injection, schedule: Q01DX009 (ip), vehicle: saline with Tween-80
[7] = dose: 100.0 mg/kg/injection, schedule: Q01DX009 (ip), vehicle: saline with Tween-80
[8] = dose: 200.0 mg/kg/injection, schedule: Q01DX009 (ip), vehicle: saline with Tween-80
[9] = dose: 50.0 mg/kg/injection, schedule: Q01DX009 (ip), vehicle: Klucel (hydroxypropylcellulose) (HPC)
[10] = dose: 100.0 mg/kg/injection, schedule: Q01DX009 (ip), vehicle: Klucel (hydroxypropylcellulose) (HPC)
[11] = dose: 200.0 mg/kg/injection, schedule: Q01DX009 (ip), vehicle: Klucel (hydroxypropylcellulose) (HPC)
[12] = dose: 12.5 mg/kg/injection, schedule: Q01DX009 (ip), vehicle: saline with Tween-80
[13] = dose: 25.0 mg/kg/injection, schedule: Q01DX009 (ip), vehicle: saline with Tween-80
[14] = dose: 60.0 mg/kg/injection, schedule: Q01DX005 (ip), vehicle: saline with Tween-80
[15] = dose: 120.0 mg/kg/injection, schedule: Q01DX005 (ip), vehicle: saline with Tween-80
[16] = dose: 240.0 mg/kg/injection, schedule: Q01DX005 (ip), vehicle: saline with Tween-80
[17] = dose: 12.5 mg/kg/injection, schedule: Q01DX005 (ip), vehicle: saline with Tween-80
[18] = dose: 25.0 mg/kg/injection, schedule: Q01DX005 (ip), vehicle: saline with Tween-80

Measured: T/C

c1nc(N2CCCCC2)c2[nH]cnc2n1
inactive: [1] 109 % of control | [2] 104 % of control

COC(=O)/C=C\C1(CC(C)C)N=C(c2ccccc2)OC1=O (stereo not drawn)
inactive: [3] 104 % of control | [4] 95 % of control | [5] 104 % of control

O=C(CC(c1ccccc1)c1ccccc1)c1ccccc1
inactive: [6] 86 % of control | [7] 90 % of control | [8] 88 % of control | dose: 400.0 mg/kg/injection, schedule: Q01DX009 (ip), vehicle: saline with Tween-80 89 % of control

O=C(O)C1CCC(=O)N1Cc1ccccc1 (stereo not drawn)
inactive: [9] 89 % of control | [10] 100 % of control | [11] 107 % of control

CSc1nc2ncnn2c(=O)[nH]1
inactive: [12] 100 % of control | [13] 99 % of control | [3] 98 % of control | [6] 100 % of control | [4] 105 % of control | [7] 100 % of control | [5] 103 % of control

CS(=O)(=O)OCCF
inactive: dose: 0.78 mg/kg/injection, schedule: Q01DX009 (ip), vehicle: saline with Tween-80 97 % of control | dose: 1.56 mg/kg/injection, schedule: Q01DX009 (ip), vehicle: saline with Tween-80 100 % of control | dose: 3.12 mg/kg/injection, schedule: Q01DX009 (ip), vehicle: saline with Tween-80 103 % of control | dose: 3.96 mg/kg/injection, schedule: Q04DX003 (ip), vehicle: saline 109 % of control | dose: 6.0 mg/kg/injection, schedule: Q04DX003 (ip), vehicle: saline 104 % of control | dose: 6.25 mg/kg/injection, schedule: Q01DX009 (ip), vehicle: saline with Tween-80 105 % of control and 111 % of control | dose: 9.0 mg/kg/injection, schedule: Q04DX003 (ip), vehicle: saline 118 % of control | [12] 89 % of control

COc1cc(COC(=O)c2ccc(CSc3ccc(Cl)cc3)o2)cc(OC)c1OC
inactive: [3] 99 % of control | [4] 99 % of control

O=C(CNC(=O)c1ccccc1)N/N=C\c1c[nH]c2ccccc12
inactive: [14] 101 % of control | [15] 100 % of control | [16] 96 % of control

CC1=C(/C=C/C(C)=C/C=C/C(C)=C/C=C/C=C(C)/C=C/C=C(\C)C=O)C(C)(C)CCC1
inactive: [14] 101 % of control | [15] 92 % of control | [16] 94 % of control

O=c1nc(Nc2cccc(Cl)c2)oc2cc(Cl)oc(=O)c12
inactive: [12] 109 % of control | [13] 109 % of control | [6] 113 % of control and 115 % of control | [7] 95 % of control

COc1cc[c]([Sb]2([c]3ccc(OC)cc3)([c]3ccc(OC)cc3)[NH]c3cc(C(c4ccccc4)(c4ccccc4)c4ccccc4)cc(C(C)(C)C)c3[O]2)cc1
inactive: [6] 100 % of control | [7] 99 % of control | [8] 100 % of control

CC(=O)O.CC(=O)O.CC[OH+]CC[OH+]CC[OH+]C1CCCC2CCC[N-]C21.[Zn] (stereo not drawn)
inactive: dose: 6.25 mg/kg/injection, schedule: Q01DX005 (ip), vehicle: Klucel (hydroxypropylcellulose) (HPC) 111 % of control | dose: 12.5 mg/kg/injection, schedule: Q01DX005 (ip), vehicle: Klucel (hydroxypropylcellulose) (HPC) 105 % of control and 113 % of control (2×) | dose: 25.0 mg/kg/injection, schedule: Q01DX005 (ip), vehicle: Klucel (hydroxypropylcellulose) (HPC) 109 % of control and 113 % of control and 116 % of control

C=C([Se]c1ccccc1)C(C)(C)C
inactive: [6] 114 % of control | [7] 119 % of control

CNC(=O)OCn1cnc(Cl)c1Cl
inactive: dose: 50.0 mg/kg/injection, schedule: Q01DX005 (ip), vehicle: saline 93 % of control | dose: 100.0 mg/kg/injection, schedule: Q01DX005 (ip), vehicle: saline 101 % of control | dose: 200.0 mg/kg/injection, schedule: Q01DX005 (ip), vehicle: saline 102 % of control

N=C(N)SCc1c2ccccc2cc2ccccc12
inactive: dose: 22.0 mg/kg/injection, schedule: Q01DX009 (ip), vehicle: saline with Tween-80 109 % of control | dose: 33.0 mg/kg/injection, schedule: Q01DX009 (ip), vehicle: saline with Tween-80 109 % of control | [6] 109 % of control | dose: 75.0 mg/kg/injection, schedule: Q01DX009 (ip), vehicle: saline with Tween-80 118 % of control | dose: 100.0 mg/kg/injection, schedule: Q04DX003 (ip), vehicle: saline with Tween-80 118 % of control

O=C(NCCCCCCCCCNC(=O)C12CC3CC(CC(C3)C1)C2)C12CC3CC(CC(C3)C1)C2
inactive: [17] 93 % of control | [18] 93 % of control | [3] 88 % of control | [5] 90 % of control

Cc1c([N+](=O)[O-])oc2c1C(=O)NCCC2
inactive: [9] 104 % of control | [10] 91 % of control | [11] 108 % of control

[Cl][Fe]([Cl])([Cl])[Cl].c1ccc(C[n+]2ccccc2)cc1
inactive: dose: 6.25 mg/kg/injection, schedule: Q01DX009 (ip), vehicle: saline 108 % of control | dose: 12.5 mg/kg/injection, schedule: Q01DX009 (ip), vehicle: saline 104 % of control | dose: 25.0 mg/kg/injection, schedule: Q01DX009 (ip), vehicle: saline 117 % of control

Cn1c(=S)[nH]n(CCOc2ccccc2)c1=S
inactive: [14] 118 % of control | [15] 98 % of control and 99 % of control and 108 % of control | [16] 109 % of control and 123 % of control and 97 % of control | dose: 480.0 mg/kg/injection, schedule: Q01DX005 (ip), vehicle: saline with Tween-80 105 % of control and 96 % of control

COc1cccc(C(=O)Nc2ccccc2-c2ccccc2)c1OC
inactive: [3] 97 % of control | [4] 95 % of control | [5] 87 % of control

c1ccc2c(-c3nc4ccccc4c4ccccc34)nccc2c1
inactive: dose: 100.0 mg/kg/injection, schedule: Q01DX001 (ip), vehicle: saline with Tween-80 92 % of control | dose: 200.0 mg/kg/injection, schedule: Q01DX001 (ip), vehicle: saline with Tween-80 92 % of control | dose: 400.0 mg/kg/injection, schedule: Q01DX001 (ip), vehicle: saline with Tween-80 99 % of control

CCOC(=O)c1c(C(=O)OCC)c2cccn2c2c1cnn2-c1ccccc1
inactive: [14] 99 % of control | [15] 93 % of control | [16] 91 % of control

Cc1ccc(C(O)(CS(C)=O)c2ccco2)cc1 (stereo not drawn)
inactive: [12] 100 % of control | [13] 100 % of control | [6] 100 % of control

CC(=O)Oc1cc(C)cc2c1[C@@]1(C)CC[C@H]3[C@@H](CC[C@H]4C[C@@H](OC(C)=O)CC[C@@]43C)[C@@H]1C2
inactive: [1] 96 % of control | [2] 96 % of control | dose: 200.0 mg/kg/injection, schedule: Q01DX005 (ip), vehicle: Klucel (hydroxypropylcellulose) (HPC) 107 % of control

N#CC(Cc1ccc(CC(C#N)(c2ccccc2)c2ccccn2)cc1)(c1ccccc1)c1ccccn1 (stereo not drawn)
inactive: [14] 100 % of control | [15] 91 % of control | [16] 86 % of control

CCN(CC)CCNC(=O)c1ccc2c(c1)C(=O)c1ccccc1C2=O
inactive: dose: 100.0 mg/kg/injection, schedule: Q04DX003 (ip), vehicle: saline 108 % of control | dose: 200.0 mg/kg/injection, schedule: Q04DX003 (ip), vehicle: saline 119 % of control

CCCCP(=O)(CCCC)CCCC.CCCCP(=O)(CCCC)CCCC.CCCCP(=O)(CCCC)CCCC.CCCCP(=O)(CCCC)CCCC.[Fe+3].[O-][Cl+3]([O-])([O-])O
inactive: dose: 50.0 mg/kg/injection, schedule: Q01DX009 (ip), vehicle: saline + Tween-80 + alcohol 112 % of control | dose: 100.0 mg/kg/injection, schedule: Q01DX009 (ip), vehicle: saline + Tween-80 + alcohol 93 % of control | dose: 200.0 mg/kg/injection, schedule: Q01DX009 (ip), vehicle: saline + Tween-80 + alcohol 89 % of control

COC(=O)C(=O)C1(c2nc3n(c2O)/C(=N/C(=O)Nc2ccc(Cl)cc2)N=N3)CCCCCC1=O (stereo not drawn)
inactive: [14] 100 % of control | [15] 99 % of control | [16] 94 % of control

CCC[CH2][Sn]([CH2]CCC)([CH2]CCC)[CH2]CCCNCCCN(C)C
inactive: dose: 50.0 mg/kg/injection, schedule: Q01DX009 (ip), vehicle: saline 97 % of control | dose: 100.0 mg/kg/injection, schedule: Q01DX009 (ip), vehicle: saline 100 % of control

COc1ccc2sc3cccc(NCCN(C)C)c3c(=O)c2c1
inactive: [17] 112 % of control | [18] 108 % of control | [3] 100 % of control and 95 % of control | [4] 98 % of control and 99 % of control | [5] 106 % of control | dose: 400.0 mg/kg/injection, schedule: Q01DX005 (ip), vehicle: saline with Tween-80 98 % of control
